Molecular target: T1, human glucocorticoid receptor (Homo sapiens, UniProt P04150)
T1 construct: purified human recombinant full-length glucocorticoid receptor (2 nM); purchased Invitrogen Part #2893
T1 sequence (P04150 1-777): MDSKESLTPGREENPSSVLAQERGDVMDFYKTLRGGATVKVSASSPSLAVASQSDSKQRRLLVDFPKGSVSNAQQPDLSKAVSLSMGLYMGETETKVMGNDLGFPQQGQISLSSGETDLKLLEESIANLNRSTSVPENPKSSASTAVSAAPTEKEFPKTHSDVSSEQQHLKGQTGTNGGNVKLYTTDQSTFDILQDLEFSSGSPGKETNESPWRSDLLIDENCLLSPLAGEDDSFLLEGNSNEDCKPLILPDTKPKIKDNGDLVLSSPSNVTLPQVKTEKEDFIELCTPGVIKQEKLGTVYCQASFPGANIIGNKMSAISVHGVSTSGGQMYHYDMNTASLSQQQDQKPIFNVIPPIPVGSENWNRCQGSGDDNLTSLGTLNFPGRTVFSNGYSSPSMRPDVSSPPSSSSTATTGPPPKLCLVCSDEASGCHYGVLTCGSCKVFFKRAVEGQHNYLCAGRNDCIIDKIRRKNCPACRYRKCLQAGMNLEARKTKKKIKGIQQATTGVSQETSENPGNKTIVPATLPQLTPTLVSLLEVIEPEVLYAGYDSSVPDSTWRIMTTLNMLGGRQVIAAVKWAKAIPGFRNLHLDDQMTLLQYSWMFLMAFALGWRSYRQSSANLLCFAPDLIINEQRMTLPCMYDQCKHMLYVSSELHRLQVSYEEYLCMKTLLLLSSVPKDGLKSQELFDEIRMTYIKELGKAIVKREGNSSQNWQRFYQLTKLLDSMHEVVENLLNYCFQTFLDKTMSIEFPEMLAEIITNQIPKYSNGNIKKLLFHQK
Assay: Glucocorticoid Receptor Binding Assay (I), fluorescence polarization competitor kit
Details: purified human recombinant full-length GR, Fluormone GS Red
Description: Glucocorticoid Receptor Binding Assay (I)^a
In order to assess the affinity of test compounds for the human glucocorticoid receptor, a commercially available kit was used (Glucocorticoid Receptor Competitor Assay Kit, Invitrogen Part #2893). Briefly, purified human recombinant full-length glucocorticoid receptor (2 nM) was mixed with fluorescently labeled glucocorticoid (1 nM Fluormone GS Red) in the presence or absence of test compound. After two hour incubation at room temperature in the dark, the fluorescence polarization (FP) of the samples was measured. The FP of a mixture of receptor, fluorescent probe (i.e. Fluormone GS Red) and 5 μM dexamethasone represented background fluorescence or 100% inhibition, whereas, the FP of the mixture without dexamethasone (but in the presence of vehicle) was taken to be 100% binding. The percentage inhibition of test compounds were then compared to the sample with 5 μM dexamethasone and expressed as % relative binding activity with dexamethasone being 100% and no inhibition is 0%. Test compounds were analyzed in the concentration range from 8.5E-05 μM to 5 μM.

| SMILES | Ki [nM] |
| --- | --- |
| CC(C)Oc1ccc(-c2ccc(C(c3ccccc3)C(C)(C)C(=O)Nc3nncs3)cn2)cc1F (centres unmarked) [Example 29, 3-(6-(3-fluoro-4-isopropoxyphenyl)-3-pyridinyl)-2,2-dimethyl-3-phenyl-N-1,3,4-thiadiazol-2-ylpropanamide] | 7.69 |
| C[C@H](C(=O)Nc1nncs1)[C@@H](c1cccc(F)c1)c1ccc(-c2ccc(C(=O)N(C)C)c(Cl)c2)s1 [Example 123, 2-chloro-4-(5-((1S,2S)-1-(3-fluorophenyl)-2-methyl-3-oxo-3-(1,3,4-thiadiazol-2-ylamino)propyl)-2-thienyl)-N,N-dimethylbenzamide] | 7.16 |
| CN(C)C(=O)c1ccc(-c2ccc([C@@H](c3cccc(F)c3)C(C)(C)C(=O)Nc3nncs3)s2)cc1 [Example 58, 4-(5-((1S)-1-(3-fluorophenyl)-2,2-dimethyl-3-oxo-3-(1,3,4-thiadiazol-2-ylamino)propyl)-2-thienyl)-N,N-dimethylbenzamide] | 29.2 |
| CN(C)C(=O)c1ccc(-c2ccc([C@@H](c3cccc(F)c3)C(C)(C)C(=O)Nc3nncs3)s2)cc1Cl [Example 60, 2-chloro-4-(5-((1S)-1-(3-fluorophenyl)-2,2-dimethyl-3-oxo-3-(1,3,4-thiadiazol-2-ylamino)propyl)-2-thienyl)-N,N-dimethylbenzamide] | 161 |
| C[C@H](C(=O)Nc1nncs1)[C@@H](c1cccc(F)c1)c1ccc(-c2ccc(C(=O)N3CCOCC3)c(Cl)c2)s1 [Example 124, (2S,3S)-3-(5-(3-chloro-4-(4-morpholinylcarbonyl)phenyl)-2-thienyl)-3-(3-fluorophenyl)-2-methyl-N-1,3,4-thiadiazol-2-ylpropanamide] | 7.27 |
| CC(C(=O)Nc1nncs1)C(c1ccccc1)c1ccc(-c2ccc(C(=O)N(C)C)cc2)s1 (single isomer, unassigned) [Example 139, N,N-dimethyl-4-(5-(2-methyl-3-oxo-1-phenyl-3-(1,3,4-thiadiazol-2-ylamino)propyl)-2-thienyl)benzamide] | 259 |
| C[C@H](C(=O)Nc1nncs1)[C@@H](c1ccccc1)c1ccc(-c2ccc(C(=O)N(C)C)cc2)s1 [Example 137, N,N-dimethyl-4-(5-((1S,2S)-2-methyl-3-oxo-1-phenyl-3-(1,3,4-thiadiazol-2-ylamino)propyl)-2-thienyl)benzamide] | 4.73 |
| CC(C)(C(=O)Nc1nncs1)[C@@H](c1cccc(F)c1)c1ccc(-c2ccc(C(=O)N3CCC3)cc2)s1 [Example 81, (3R)-3-(5-(4-(1-azetidinylcarbonyl)phenyl)-2-thienyl)-3-(3-fluorophenyl)-2,2-dimethyl-N-1,3,4-thiadiazol-2-ylpropanamide] | 4.32 |
| C[C@H](C(=O)Nc1nncs1)[C@@H](c1ccccc1)c1ccc(Br)s1 [Example 133, (2S,3S)-3-(5-bromo-2-thienyl)-2-methyl-3-phenyl-N-1,3,4-thiadiazol-2-ylpropanamide] | 4.85 |
| C[C@H](C(=O)Nc1nncs1)[C@@H](c1cccc(F)c1)c1ccc(-c2ccc(C(=O)N3CCOCC3)cc2)s1 [Example 108, (2S,3S)-3-(3-fluorophenyl)-2-methyl-3-(5-(4-(4-morpholinylcarbonyl)phenyl)-2-thienyl)-N-1,3,4-thiadiazol-2-ylpropanamide] | 5.39 |
| C[C@@H](C(=O)Nc1nncs1)[C@@H](c1cccc(F)c1)c1ccc(-c2ccc(C(=O)N(C)C)c(Cl)c2)s1 [Example 129, 2-chloro-4-(5-((1S,2R)-1-(3-fluorophenyl)-2-methyl-3-oxo-3-(1,3,4-thiadiazol-2-ylamino)propyl)-2-thienyl)-N,N-dimethylbenzamide] | 158 |

Now those with a lower Ki, led by results:

| Ki [nM] | SMILES |
| --- | --- |
| 3.66 | CC(C)(C(=O)Nc1nncs1)C(c1ccccc1)c1ccc(Br)s1 (centres unmarked) [Example 3, -(5-bromo-2-thienyl)-2,2-dimethyl-3-phenyl-N-1,3,4-thiadiazol-2-ylpropanamide] |
| 3.2 | CC(C(=O)Nc1nncs1)C(c1ccccc1)c1ccc(Br)s1 (mixture of isomers) [Example 132, 3-(5-bromo-2-thienyl)-2-methyl-3-phenyl-N-1,3,4-thiadiazol-2-ylpropanamide] |
| 3.2 | CCN(C)C(=O)c1ccc(-c2ccc([C@@H](c3cccc(F)c3)[C@@H](C)C(=O)Nc3ncc(C)s3)s2)cc1 [Example 142, N-ethyl-4-(5-((1R,2R)-1-(3-fluorophenyl)-2-methyl-3-((5-methyl-1,3-thiazol-2-yl)amino)-3-oxopropyl)-2-thienyl)-N-methylbenzamide] |
| 2.74 | CC(C)(C(=O)Nc1nncs1)C(c1ccccc1)c1ccc(Br)s1 (single isomer, unassigned) [Example 85, 3-(5-bromo-2-thienyl)-2,2-dimethyl-3-phenyl-N-1,3,4-thiadiazol-2-ylpropanamide] |
| 2.66 | CC(C)(C(=O)Nc1nncs1)[C@@H](c1cccc(F)c1)c1ccc(-c2ccc(C(=O)N3CCC3)c(F)c2)s1 [Example 82, (3R)-3-(5-(4-(1-azetidinylcarbonyl)-3-fluorophenyl)-2-thienyl)-3-(3-fluorophenyl)-2,2-dimethyl-N-1,3,4-thiadiazol-2-ylpropanamide] |
| 2.44 | CCN(C)C(=O)c1ccc(-c2ccc([C@H](c3cccc(F)c3)[C@H](C)C(=O)Nc3nncs3)s2)cc1 [Example 106, N-ethyl-4-(5-((1S,2S)-1-(3-fluorophenyl)-2-methyl-3-oxo-3-(1,3,4-thiadiazol-2-ylamino)propyl)-2-thienyl)-N-methylbenzamide] |
| 2.39 | CC(C)(C(=O)Nc1nncs1)[C@@H](c1cccc(F)c1)c1ccc(Br)s1 [Example 57, (3R)-3-(5-bromo-2-thienyl)-3-(3-fluorophenyl)-2,2-dimethyl-N-1,3,4-thiadiazol-2-ylpropanamide] |
| 2.24 | CC(C)(C(=O)Nc1nncs1)[C@@H](c1cccc(F)c1)c1ccc(-c2ccc(C(N)=O)cc2)s1 [Example 74, 4-(5-((1R)-1-(3-fluorophenyl)-2,2-dimethyl-3-oxo-3-(1,3,4-thiadiazol-2-ylamino)propyl)-2-thienyl)benzamide] |
| 2.15 | CCN(C)C(=O)c1ccc(-c2ccc([C@@H](c3ccccc3)[C@@H](C)C(=O)Nc3nncs3)s2)cc1 (stereo in doubt) [Example 154, N-ethyl-N-methyl-4-(5-((1R,2R)-2-methyl-3-oxo-1-phenyl-3-(1,3,4-thiadiazol-2-ylamino)propyl)-2-thienyl)benzamide] |
| 1.98 | C[C@@H](C(=O)Nc1nncs1)[C@H](c1ccccc1)c1ccc(Br)s1 [Example 136, (2R,3R)-3-(5-bromo-2-thienyl)-2-methyl-3-phenyl-N-1,3,4-thiadiazol-2-ylpropanamide] |
| 1.51 | CC(C)(C(=O)Nc1nncs1)[C@@H](c1cccc(F)c1)c1ccc(-c2ccc(C(=O)N3CCCCC3)cc2)s1 [Example 71, (3R)-3-(3-fluorophenyl)-2,2-dimethyl-3-(5-(4-(1-piperidinylcarbonyl)phenyl)-2-thienyl)-N-1,3,4-thiadiazol-2-ylpropanamide] |
| 1.46 | CN(C)C(=O)c1ccc(-c2ccc(C(c3cccc(F)c3)C(C)(C)C(=O)Nc3nncs3)s2)cc1 (centres unmarked) [Example 36, 4-(5-(1-(3-fluorophenyl)-2,2-dimethyl-3-oxo-3-(1,3,4-thiadiazol-2-ylamino)propyl)-2-thienyl)-N,N-dimethylbenzamide] |
| 1.21 | CC(C)(C(=O)Nc1nncs1)[C@H](c1cccc(F)c1)c1ccc(Br)s1 [Example 56, (3S)-3-(5-bromo-2-thienyl)-3-(3-fluorophenyl)-2,2-dimethyl-N-1,3,4-thiadiazol-2-ylpropanamide] |
| 1.14 | CCN(C)C(=O)c1ccc(-c2ccc(C(c3cc(F)cc(F)c3)C(C)(C)C(=O)Nc3nncs3)s2)cc1 (centres unmarked) [Example 92, 4-(5-(1-(3,5-difluorophenyl)-2,2-dimethyl-3-oxo-3-(1,3,4-thiadiazol-2-ylamino)propyl)-2-thienyl)-N-ethyl-N-methylbenzamide] |
| 1.03 | CCN(CC)C(=O)c1ccc(-c2ccc([C@H](c3cccc(F)c3)C(C)(C)C(=O)Nc3nncs3)s2)cc1 [Example 69, N,N-diethyl-4-(5-((1R)-1-(3-fluorophenyl)-2,2-dimethyl-3-oxo-3-(1,3,4-thiadiazol-2-ylamino)propyl)-2-thienyl)benzamide] |

Source: patent US8222247B2, “Modulators of glucocorticoid receptor, AP-1, and/or NF-kappabeta activity and use thereof” (Bristol-Myers Squibb Company, priority 2006, dated 2012)
